From PubChem BioAssay (NCI)
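All cell lines were grown in 96-well plates and treated with compound for 48 hours. At the GI50, growth is halved. TGI: concentration producing complete growth inhibition.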

test system: MDA-MB-468 breast; assay: inhibition of tumour cell growth, NCI panel, 48 h

Row | SMILES | GI50 [nM] | TGI [nM]
1 | COc1ccc([N+](=O)[O-])c(S(=O)(=O)c2ccc(Cl)cc2)n1 | 1930 | 4760
2 | O=C(CCCCCCNC(=O)C(O)(O)C(F)(F)F)Nc1ccc(Br)cc1 | 821 | 2680
3 | COc1cc2nc(Nc3cccc(F)c3)nc(Nc3cc(C)[nH]n3)c2cc1OC | 1630 | 3230
4 | Nc1c(C(=O)Nc2ccccc2Cl)sc2nc3c(cc12)CCCCCC3 | 2250 | 12000
5 | COC(=O)CCC/C=C\C[C@H]1C=CC(=O)/C1=C/C[C@@H](O)C/C=C\CC(F)(F)F | 1740 | 3770
6 | COc1cc(C(=O)c2cc3c(cc2C)OCO3)cc(OC)c1OC | 31.1 | –
7 | COC(=O)C1=C(C(=O)OC)C23C=C(C)C1C2=C(C)C1(CC1)[C@@](C)(O)C3=O (stereo not given in full) | 181 | 421
8 | CCCN(CCC)c1ccc(/C=N/NC(=O)c2cccnc2)c(Cl)c1 | 197 | 631
9 | CCCCCCCC[N+](C)(CCCCCCCC)CCCCCCCC | 202 | 901
10 | COc1ccc(-c2nc(-c3nc4ccc(OC)cc4[nH]3)cc3c2[nH]c2ccccc23)cc1 | 3160 | > 100000
11 | CCOC(=O)c1sc(Nc2ccc(Cl)cc2)nc1C | 1560 | 4240
12 | C=C(C)[C@@H]1CC[C@]2(C)[C@H](CC[C@@H]3[C@H]4[C@H]5OC[C@@]4(CCC5(C)C)CC[C@]32C)[C@@]1(C)CCCN | 1580 | 3050
13 | COc1ccc(C2=NN(C(C)=O)C(c3cn(-c4ccccc4)nc3-c3ccc(Cl)cc3)C2)cc1 (stereo not given) | > 100000 | > 100000
14 | COC1=CC(c2ccc[nH]2)=N/C1=C\c1[nH]c(C)c(C(=O)CCCCC(=O)Nc2ccccc2)c1C | 1720 | 3660
15 | Cc1ccc(S(=O)(=O)N2CCc3ccc(O)c4c3C2Cc2cc(Cl)ccc2-4)cc1 (stereo not given) | 707 | 1920
16 | C=C1C(=O)O[C@H]2[C@H]1CC/C(COC(=O)NCc1c[nH]c3ccc(Cl)cc13)=C\CC[C@@]1(C)O[C@@H]21 | 913 | 2500
17 | Cc1ccc(C)c(-c2csc(Nc3ccc(C)c(C)c3)n2)c1 | 63100 | > 100000
18 | CCOC(=O)c1c(C(F)(F)F)n([O-])c2ccc(OC)cc2[n+]1=O | 2580 | 7410
19 | CC(=O)OC[C@]12CC[C@@H](C(=O)/C=C/c3cccnc3)[C@@H]1[C@H]1CC[C@@H]3[C@@]4(C)CC[C@H](OC(C)=O)C(C)(C)[C@@H]4CC[C@@]3(C)[C@]1(C)CC2 | 1770 | 4410

Row | SMILES | GI50 [nM] | TGI [nM]
20 | CC(C)n1c2c([n+](C)c1/C=C/c1ccccc1)C(=O)c1ccccc1C2=O | < 10 | 14.8
21 | N#Cc1ccnc(N2C(=O)CC[C@H]2C(=O)N(c2cncc(F)c2)[C@H](C(=O)NC2CC(F)(F)C2)c2ccccc2Cl)c1 | 28400 | > 100000
22 | CC[C@]12C=CCN3CC[C@]4(C(=C(C(=O)OC)C1)Nc1cc5c(cc14)[C@@H]1[C@H](O5)[C@@H](O)[C@@]4(CC)CC(C(=O)OC)=C5Nc6cc(OC)ccc6[C@@]56CCN1[C@@H]46)[C@@H]32 | 94.4 | 1340
23 | CC(=O)N=c1ccc2nc3c(cc(N)c4ccccc43)oc-2c1 | 274 | 1400
24 | Cc1[nH]c(=O)[nH]c(=O)c1CO | > 100000 | > 100000
25 | CSc1nc2sc3cc(Cl)ccc3n2c(=N)c1C#N | 2130 | 20000
26 | COc1ccccc1CNCCCN1C(=O)c2ccc3c4c(ccc(c24)C1=O)C(=O)N(CCCNCCCN)C3=O | 246 | 2240
27 | NS(=O)(=O)c1ccc(CCN=C=S)cc1 | 380 | 2860
28 | COc1cc(/C=C2\COc3ccc(O)c(O)c3C2=O)cc(OC)c1 | 1910 | 6690
29 | NCCC(O)(P(=O)(O)O)P(=O)(O)O | > 100000 | > 100000
30 | COc1ccc(NC(=O)c2sc3nc(C)c(C(O)c4ccccc4)cc3c2N)cc1 (stereo not given) | 1900 | 70100
31 | C[C@@H]1C=C2C(=O)O[C@@H]3CC[C@H](C1)[C@]23O | 1750 | 5500
32 | Cn1cc(C2=C(c3cn(CCN)c4ccccc34)C(=O)NC2=O)c2ccccc21 | 4730 | 13400
33 | CCCc1nc2c(C)cc(-c3nc4ccccc4n3C)cc2n1Cc1ccc(-c2ccccc2C(=O)O)cc1 | 37400 | > 100000
34 | C[C@H]1[C@H](C)CC[C@]2(C(=O)O)CC[C@]3(C)C(=CC[C@@H]4[C@@]5(C)C/C(=C/c6ccco6)C(=O)C(C)(C)[C@@H]5CC[C@]43C)[C@H]12 | 4070 | 17400
35 | Nc1ccc(/C=N/Nc2ccnc3c(N)cccc23)c2cccnc12 | 1390 | 2990
36 | COc1cc(-c2cc(-c3nc4ccc(Cl)cc4[nH]3)[nH]n2)cc(OC)c1OC | 2330 | 13500
37 | COc1ccc(/C=C/c2n[nH]c3ccc(N4CCOC4=O)cc23)cc1 | 2440 | 4720
38 | CCn1cnc2c(Nc3cccc(Cl)c3)nc(N[C@@H]3CCCC[C@@H]3N)nc21 | 1860 | 4360
